Measurements from US20070128217A1 (priority 2003, published 2007).

Columns and labels:
[1] = system: control sera (pooled serum of ten healthy LUMC hospital workers; commercial negative donor pooled serum from the Dutch bloodbank); assay type: binding, human; set-up: Binding of Control serum LUMC to linear peptides / Binding of Control serum Blood-bank to linear peptides / Binding of Control serum LUMC to looped peptides / Binding of Control Serum Blood-Bank to Looped peptides / Binding of Control serum LUMC to linear peptides of the protein M of SARS-CoV Urbani / Binding of Control serum Blood-bank to linear peptides of the protein M of SARS-CoV Urbani / Binding of Control serum LUMC to looped peptides of the protein M of SARS-CoV Urbani / Binding of Control Serum Blood-Bank to Looped peptides of the protein M of SARS-CoV Urbani: unit not given here
[2] = system: recombinant human anti-SARS-CoV antibody 03-018; assay type: binding; set-up: Binding of antibody 03-018 to linear peptides of the N protein of SARS-CoV Urbani / Binding of antibody 03-018 to looped/cyclic peptides of the N protein of SARS-CoV Urbani: unit not given here
[3] = system: rabbit serum obtained by immunizing a rabbit with the SARS-CoV strain Frankfurt 1; assay type: binding; set-up: Binding of a rabbit serum to linear peptides / Binding of a rabbit serum to looped peptides / Rabbit serum linear peptides / Rabbit serum looped peptides / Binding of a rabbit serum to linear peptides of protein N of SARS-CoV Urbani (Rabbit serum linear peptides) / Binding of a rabbit serum to looped/cyclic peptides of protein N of SARS-CoV Urbani (Rabbit serum looped peptides): unit not given here

Sequence | Binding of Control Serum Blood-Bank to Looped peptides [1] | Binding of Control serum Blood-bank to linear peptides [1] | Binding of Control serum LUMC to linear peptides [1] | Binding of Control serum LUMC to looped peptides [1] | Binding of antibody 03-018 to linear peptides of the N protein of SARS-CoV Urbani [2] | Binding of antibody 03-018 to looped/cyclic peptides of the N protein of SARS-CoV Urbani [2] | Binding of a rabbit serum to linear peptides of protein N of SARS-CoV Urbani (Rabbit serum linear peptides) [3] | Binding of a rabbit serum to looped/cyclic peptides of protein N of SARS-CoV Urbani (Rabbit serum looped peptides) [3] | Recognition of the peptide by the rabbit serum [3] | Control Serum Blood-Bank Looped peptides [1] | Control serum Blood-bank linear peptides [1] | Control serum LUMC linear peptides [1] | Control serum LUMC looped peptides [1]
GTTLPKGFYAEGSRG | 0.5 | 0.6 | 0.6 | 0.6 | 0.1 | 0.2 | 0.2 | 0.3 | – | – | – | – | –
RQKRTATKQYNVTQA | 0.9 | 0.9 | 0.8 | 0.8 | 0.1 | 0.2 | – | – | recognized | – | – | – | –
NAATVLQLPQGTTLP | 0.6 | 0.7 | 0.5 | 0.4 | 0.1 | 0.2 | 0.2 | 0.0 | – | – | – | – | –
KPRQKRTATKQYNVT | 0.4 | 0.8 | 0.7 | 0.4 | 0.1 | 0.2 | 0.3 | 0.0 | – | – | – | – | –
TATKQYNVTQAFGRR | 0.9 | 0.8 | 0.8 | 1.0 | 0.1 | 0.3 | – | – | recognized | – | – | – | –
SPARMASGGGETALA | 0.1 | 0.9 | 0.8 | 0.2 | 0.1 | 0.1 | 0.2 | 0.0 | – | – | – | – | –
TTLPKGFYAEGSRGG | 0.6 | 0.6 | 0.7 | 0.5 | 0.1 | 0.2 | 0.2 | 0.4 | – | – | – | – | –
KLDDKDPQFKDNVIL | – | – | – | – | 0.1 | 0.2 | 0.1 | 0.2 | – | 0.7 | 0.8 | 0.7 | 0.8
LQLPQGTTLPKGFYA | 0.5 | 1.0 | 0.8 | 0.5 | 0.1 | 0.2 | 0.2 | 1.0 | – | – | – | – | –
